Results reported in PubChem BioAssay AID1259407 (Chemical Carcinogenesis Research Information System (CCRIS), 2018).
Active and inactive are the calls of the source. The rule behind the calls is not given here.

Test system: CCRIS mutagenicity, Ames/micronucleus/aberration tests
Test: CCRIS mutagenicity studies
[1] = Test System: AMES SALMONELLA TYPHIMURIUM, Strain/Indicator: TA98, Metabolic Activation: NONE, Method: PREINCUBATION
[2] = Test System: AMES SALMONELLA TYPHIMURIUM, Strain/Indicator: TA98, Metabolic Activation: NONE, Method: STANDARD PLATE
[3] = Test System: AMES SALMONELLA TYPHIMURIUM, Strain/Indicator: TA100, Metabolic Activation: NONE, Method: PREINCUBATION
[4] = Test System: AMES SALMONELLA TYPHIMURIUM, Strain/Indicator: TA100, Metabolic Activation: NONE, Method: STANDARD PLATE
[5] = Test System: AMES SALMONELLA TYPHIMURIUM, Strain/Indicator: TA1535, Metabolic Activation: NONE, Method: PREINCUBATION
[6] = Test System: AMES SALMONELLA TYPHIMURIUM, Strain/Indicator: TA1535, Metabolic Activation: NONE, Method: STANDARD PLATE
[7] = Test System: AMES SALMONELLA TYPHIMURIUM, Strain/Indicator: TA1537, Metabolic Activation: NONE, Method: PREINCUBATION
[8] = Test System: AMES SALMONELLA TYPHIMURIUM, Strain/Indicator: TA1537, Metabolic Activation: NONE, Method: STANDARD PLATE
[9] = Test System: AMES SALMONELLA TYPHIMURIUM, Strain/Indicator: TA1538, Metabolic Activation: NONE, Method: PREINCUBATION
[10] = Test System: AMES SALMONELLA TYPHIMURIUM, Strain/Indicator: TA1538, Metabolic Activation: NONE, Method: STANDARD PLATE
[11] = Test System: Mouse lymphoma, Strain/Indicator: L5178Y (tk+/tk-), Metabolic Activation: None, Method: Suspension/plate
[12] = Test System: Mouse lymphoma, Strain/Indicator: L5178Y (tk+/tk-), Metabolic Activation: Rat, Liver, S-9, Aroclor 1254, Method: Suspension/plate
[13] = Test System: AMES SALMONELLA TYPHIMURIUM, Strain/Indicator: TA98, Metabolic Activation: RAT, LIVER, S-9, AROCLOR 1254, Method: STANDARD PLATE
[14] = Test System: AMES SALMONELLA TYPHIMURIUM, Strain/Indicator: TA100, Metabolic Activation: RAT, LIVER, S-9, AROCLOR 1254, Method: STANDARD PLATE

C[Si]1(C)O[Si](C)(C)O[Si](C)(C)O[Si](C)(C)O1
mutagenic call [1]: inactive; negative | mutagenic call [2]: inactive; negative | mutagenic call (Test System: AMES SALMONELLA TYPHIMURIUM, Strain/Indicator: TA98, Metabolic Activation: RAT LIVER S-9, AROCLOR 1254, Method: PREINCUBATION): inactive; negative | mutagenic call (Test System: AMES SALMONELLA TYPHIMURIUM, Strain/Indicator: TA98, Metabolic Activation: RAT LIVER S-9, AROCLOR 1254, Method: STANDARD PLATE): inactive; negative | mutagenic call [3]: inactive; negative | mutagenic call [4]: inactive; negative | mutagenic call (Test System: AMES SALMONELLA TYPHIMURIUM, Strain/Indicator: TA100, Metabolic Activation: RAT LIVER S-9, AROCLOR 1254, Method: PREINCUBATION): inactive; negative | mutagenic call (Test System: AMES SALMONELLA TYPHIMURIUM, Strain/Indicator: TA100, Metabolic Activation: RAT LIVER S-9, AROCLOR 1254, Method: STANDARD PLATE): inactive; negative | mutagenic call [5]: inactive; negative | mutagenic call [6]: inactive; negative | mutagenic call (Test System: AMES SALMONELLA TYPHIMURIUM, Strain/Indicator: TA1535, Metabolic Activation: RAT LIVER S-9, AROCLOR 1254, Method: PREINCUBATION): inactive; negative | mutagenic call (Test System: AMES SALMONELLA TYPHIMURIUM, Strain/Indicator: TA1535, Metabolic Activation: RAT LIVER S-9, AROCLOR 1254, Method: STANDARD PLATE): inactive; negative | mutagenic call [7]: inactive; negative | mutagenic call [8]: inactive; negative | mutagenic call (Test System: AMES SALMONELLA TYPHIMURIUM, Strain/Indicator: TA1537, Metabolic Activation: RAT LIVER S-9, AROCLOR 1254, Method: PREINCUBATION): inactive; negative | mutagenic call (Test System: AMES SALMONELLA TYPHIMURIUM, Strain/Indicator: TA1537, Metabolic Activation: RAT LIVER S-9, AROCLOR 1254, Method: STANDARD PLATE): inactive; negative | mutagenic call [9]: inactive; negative | mutagenic call [10]: inactive; negative | mutagenic call (Test System: AMES SALMONELLA TYPHIMURIUM, Strain/Indicator: TA1538, Metabolic Activation: RAT LIVER S-9, AROCLOR 1254, Method: PREINCUBATION): inactive; negative | mutagenic call (Test System: AMES SALMONELLA TYPHIMURIUM, Strain/Indicator: TA1538, Metabolic Activation: RAT LIVER S-9, AROCLOR 1254, Method: STANDARD PLATE): inactive; negative | mutagenic call (Test System: E. COLI, Strain/Indicator: P3078 POLA, Metabolic Activation: NONE, Method: SPOT TEST): inactive; negative | mutagenic call (Test System: E. COLI, Strain/Indicator: P3078 POLA, Metabolic Activation: RAT LIVER S-9, AROCLOR 1254, Method: SPOT TEST): inactive; negative | mutagenic call (Test System: E. COLI, Strain/Indicator: W3110, Metabolic Activation: NONE, Method: SPOT TEST): inactive; negative | mutagenic call (Test System: E. COLI, Strain/Indicator: W3110, Metabolic Activation: RAT LIVER S-9, AROCLOR 1254, Method: SPOT TEST): inactive; negative | mutagenic call (Test System: MOUSE LYMPHOMA, Strain/Indicator: L5178Y (TK+/TK-), Metabolic Activation: NONE, Method: SUSPENSION/PLATE): inactive; negative | mutagenic call (Test System: MOUSE LYMPHOMA, Strain/Indicator: L5178Y (TK+/TK-), Metabolic Activation: RAT, LIVER, S-9, Method: SUSPENSION/PLATE): inactive; negative | mutagenic call [11]: inactive; inconclusive (previous evaluation negative) | mutagenic call [12]: inactive; negative

C\C=C(/C=C(C)/C=C(C)/C=C/C=C(\C)C(=O)[C@]12O[C@H]1[C@@](O)(CCO)NC2=O)C(=O)OC
mutagenic call (Test System: AMES SALMONELLA TYPHIMURIUM, Strain/Indicator: TA97A, Metabolic Activation: NONE, Method: STANDARD PLATE): inactive; negative | mutagenic call (Test System: AMES SALMONELLA TYPHIMURIUM, Strain/Indicator: TA97A, Metabolic Activation: RAT, LIVER, S-9, AROCLOR 1254, Method: STANDARD PLATE): active; positive | mutagenic call [2]: inactive; negative | mutagenic call [13]: active; positive | mutagenic call [3]: active; positive | mutagenic call [4]: inactive; negative | mutagenic call (Test System: AMES SALMONELLA TYPHIMURIUM, Strain/Indicator: TA100, Metabolic Activation: RAT, LIVER, MICROSOMES, PHENOBARBITAL, Method: PREINCUBATION): active; positive | mutagenic call [14]: active; positive | mutagenic call (Test System: AMES SALMONELLA TYPHIMURIUM, Strain/Indicator: TA102, Metabolic Activation: NONE, Method: STANDARD PLATE): inactive; negative | mutagenic call (Test System: AMES SALMONELLA TYPHIMURIUM, Strain/Indicator: TA102, Metabolic Activation: RAT, LIVER, S-9, AROCLOR 1254, Method: STANDARD PLATE): inactive; negative

O=Cc1ccccc1[N+](=O)[O-]
mutagenic call (Test System: AMES SALMONELLA TYPHIMURIUM, Strain/Indicator: TA98, Metabolic Activation: HAMSTER, LIVER, S-9, AROCLOR 1254, Method: STANDARD PLATE): inactive; negative | mutagenic call [1]: inactive; negative | mutagenic call [2]: inactive; negative | mutagenic call [13]: inactive; negative | mutagenic call (Test System: AMES SALMONELLA TYPHIMURIUM, Strain/Indicator: TA98, Metabolic Activation: RAT, LIVER, S-9, KANECHLOR 500, Method: PREINCUBATION): inactive; negative | mutagenic call (Test System: AMES SALMONELLA TYPHIMURIUM, Strain/Indicator: TA98, Method: PREINCUBATION): inactive; negative | mutagenic call (Test System: AMES SALMONELLA TYPHIMURIUM, Strain/Indicator: TA100, Metabolic Activation: HAMSTER, LIVER, S-9, AROCLOR 1254, Method: STANDARD PLATE): inactive; negative | mutagenic call [3]: inactive; negative | mutagenic call [4]: inactive; negative | mutagenic call [14]: inactive; negative | mutagenic call (Test System: AMES SALMONELLA TYPHIMURIUM, Strain/Indicator: TA100, Metabolic Activation: RAT, LIVER, S-9, KANECHLOR 500, Method: PREINCUBATION): inactive; negative | mutagenic call (Test System: AMES SALMONELLA TYPHIMURIUM, Strain/Indicator: TA100, Method: PREINCUBATION): inactive; negative | mutagenic call (Test System: AMES SALMONELLA TYPHIMURIUM, Strain/Indicator: TA1535, Metabolic Activation: HAMSTER, LIVER, S-9, AROCLOR 1254, Method: STANDARD PLATE): inactive; negative | mutagenic call [5]: inactive; negative | mutagenic call [6]: inactive; negative | mutagenic call (Test System: AMES SALMONELLA TYPHIMURIUM, Strain/Indicator: TA1535, Metabolic Activation: RAT, LIVER, S-9, AROCLOR 1254, Method: STANDARD PLATE): inactive; negative | mutagenic call (Test System: AMES SALMONELLA TYPHIMURIUM, Strain/Indicator: TA1535, Method: PREINCUBATION): inactive; negative | mutagenic call (Test System: AMES SALMONELLA TYPHIMURIUM, Strain/Indicator: TA1537, Metabolic Activation: HAMSTER, LIVER, S-9, AROCLOR 1254, Method: STANDARD PLATE): inactive; negative | mutagenic call [7]: inactive; negative | mutagenic call [8]: inactive; negative | mutagenic call (Test System: AMES SALMONELLA TYPHIMURIUM, Strain/Indicator: TA1537, Metabolic Activation: RAT, LIVER, S-9, AROCLOR 1254, Method: STANDARD PLATE): inactive; negative | mutagenic call (Test System: AMES SALMONELLA TYPHIMURIUM, Strain/Indicator: TA1537, Method: PREINCUBATION): inactive; negative | mutagenic call (Test System: AMES SALMONELLA TYPHIMURIUM, Strain/Indicator: TA1538, Metabolic Activation: HAMSTER, LIVER, S-9, AROCLOR 1254, Method: STANDARD PLATE): inactive; negative | mutagenic call [9]: inactive; negative | mutagenic call [10]: inactive; negative | mutagenic call (Test System: AMES SALMONELLA TYPHIMURIUM, Strain/Indicator: TA1538, Metabolic Activation: RAT, LIVER, S-9, AROCLOR 1254, Method: STANDARD PLATE): inactive; negative | mutagenic call (Test System: AMES SALMONELLA TYPHIMURIUM, Strain/Indicator: TA1538, Method: PREINCUBATION): inactive; negative | mutagenic call [11]: inactive; negative | mutagenic call [12]: inactive; negative
